Measurements: US7371748B2, “Benzothiazole derivatives” (Hoffman-La Roche Inc., priority 2003, dated 2008)

Columns and labels:
[1] = molecular target: T1, human adenosine A2A receptor (Homo sapiens, UniProt P29274); assay: [3H]-SCH-58261 binding assay, human adenosine A2A receptor; conditions: human A2A receptor recombinantly expressed in CHO cell membranes; [3H]-SCH-58261 1 nM; Ki from IC50 by Cheng-Prussoff equation; read-out: Ha2 (pKi) (converted)
T1 construct: expressed in transfected cells; host or cells: CHO cells, Semliki Forest virus expression system; membrane preparation
T1 sequence (P29274 whole entry): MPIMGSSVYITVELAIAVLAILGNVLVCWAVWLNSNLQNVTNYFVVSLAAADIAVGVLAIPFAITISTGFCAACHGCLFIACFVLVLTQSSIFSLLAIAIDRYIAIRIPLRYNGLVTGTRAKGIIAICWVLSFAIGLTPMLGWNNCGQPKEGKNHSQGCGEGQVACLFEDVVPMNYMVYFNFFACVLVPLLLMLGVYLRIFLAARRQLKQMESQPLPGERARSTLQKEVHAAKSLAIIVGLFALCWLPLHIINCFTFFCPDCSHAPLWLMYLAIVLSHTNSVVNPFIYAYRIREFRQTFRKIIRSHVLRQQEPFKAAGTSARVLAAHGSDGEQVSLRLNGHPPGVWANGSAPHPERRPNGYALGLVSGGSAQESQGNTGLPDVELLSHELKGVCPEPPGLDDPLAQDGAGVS
Procedure: Human Adenosine A2A Receptor
The human adenosine A2A receptor was recombinantly expressed in chinese hamster ovary (CHO) cells using the semliki forest virus expression system. Cells were harvested, washed twice by centrifugation, homogenized and again washed by centrifugation. The final washed membrane pellet was suspended in a Tris (50 mM) buffer containing 120 mM NaCl, 5 mM KCl, 2 mM CaCl2 and 10 mM MgCl2 (pH 7.4) (buffer A). The [^3H]-SCH-58261 (Dionisotti et al., […], Br J Pharmacol 121, 353; 1 nM) binding assay was carried out in 96-well plates in the presence of 2.5 μg of membrane protein, 0.5 mg of Ysi-poly-1-lysine SPA beads and 0.1 U adenosine deaminase in a final volume of 200 μl of buffer A. Non-specific binding was defined using xanthine amine congener (XAC; 2 μM). Compounds were tested at 10 concentrations from 10 μM-0.3 nM. All assays were conducted in duplicate and repeated at least two times. Assay plates were incubated for 1 hour at room temperature before centrifugation and then bound ligand determined using a Packard Topcount scintillation counter. IC50 values were calculated using a non-linear curve fitting program and Ki values calculated using the Cheng-Prussoff equation.

SMILES	melting point [°C]	Ki [1] [nM]
COc1ccc(C2CCOCC2)c2sc(NC(=O)CC3CCOCC3)nc12 [Example 33, N-[4-Methoxy-7-(tetrahydro-pyran-4-yl)-benzothiazol-2-yl]-2-(tetrahydro-pyran-4-yl)-acetamide]	218 to 220	1.58
COCCNCc1cc(C(=O)Nc2nc3c(OC)ccc(C4CCOCC4)c3s2)ccn1 [Example 35, 2-[(2-Methoxy-ethylamino)-methyl]-N-[4-methoxy-7-(tetrahydro-pyran-4-yl)-benzothiazol-2-yl]-isonicotinamide]	93 to 95	1.58
